Test results as given in patent US8663639B2, “Formulations for treating ocular diseases and conditions” (Santen Pharmaceutical Co., Ltd., priority 2005, dated 2014).
Where two headings read alike, the source gives them in different places.

Assay: Topical administration (eye drops) of formulation #340, rapamycin levels in blood, cornea, retina choroid, sclera and vitreous (Tables 3-6)
Assay type: in vivo
Conditions: rabbit, formulation #340 topical; for concentration at 8 day / concentration at 10 day / concentration at 12 day / concentration at 14 day: Group III (two drops once a day on both eyes for 6 days)
Protocol: Both eyes (or one eye depending on the study) of each animal received one or two drops (40 μl per drop) of the studied formulations using a calibrated pipette on day 0 (day of dosing).
For Tables 3-6, the solution of Example 46 (formulation #340) was administered two drops twice a day on both eyes, one time for Group I, two drops once a day on one eye, one time for Group II, and two drops once a day on both eyes for 6 days in Group III. In Group II, the right eye (OD) but not the left eye (OS) received eye drops. In a further study, one drop of the formulation #340 (40 μL containing 880 μg rapamycin) was administered on day zero.

concentration at 1 day (sclera, 2 drops (40 μl per drop) on one eye (right eye, OD), Group II (two drops once a day on one eye, one time), OD, day 1, n = 1, read-out: Rapamycin level, sclera): 421 ng/g | concentration at 2 day (sclera, 2 drops (40 μl per drop) on one eye (right eye, OD), Group II (two drops once a day on one eye, one time), OD, day 2, n = 1, read-out: Rapamycin level, sclera): 1350 ng/g | concentration at 3 day (sclera, 2 drops (40 μl per drop) on one eye (right eye, OD), Group II (two drops once a day on one eye, one time), OD, day 3, n = 1, read-out: Rapamycin level, sclera): 541 ng/g | concentration at 1 day (sclera, 2 drops (40 μl per drop) on one eye (right eye, OD), Group II (two drops once a day on one eye, one time), OS, day 1, n = 1, read-out: Rapamycin level, sclera): 34.2 ng/g | concentration at 2 day (sclera, 2 drops (40 μl per drop) on one eye (right eye, OD), Group II (two drops once a day on one eye, one time), OS, day 2, n = 1, read-out: Rapamycin level, sclera): 144 ng/g | concentration at 3 day (sclera, 2 drops (40 μl per drop) on one eye (right eye, OD), Group II (two drops once a day on one eye, one time), OS, day 3, n = 1, read-out: Rapamycin level, sclera): 104 ng/g | concentration at 8 day (sclera, 2 drops (40 μl per drop) per eye, both eyes, day 8, n = 2, read-out: Rapamycin level, sclera): 895 ng/g | concentration at 10 day (sclera, 2 drops (40 μl per drop) per eye, both eyes, day 10, n = 2, read-out: Rapamycin level, sclera): 613 ng/g | concentration at 12 day (sclera, 2 drops (40 μl per drop) per eye, both eyes, day 12, n = 2, read-out: Rapamycin level, sclera): 131 ng/g | concentration at 14 day (sclera, 2 drops (40 μl per drop) per eye, both eyes, day 14, n = 2, read-out: Rapamycin level, sclera): 420 ng/g | concentration at 1 day (sclera, 2 drops (40 μl per drop) per eye, both eyes, twice a day, Group I (two drops twice a day on both eyes, one time), day 1, n = 2, read-out: Rapamycin level, sclera): 90.8 ng/g | concentration at 2 day (sclera, 2 drops (40 μl per drop) per eye, both eyes, twice a day, Group I (two drops twice a day on both eyes, one time), day 2, n = 2, read-out: Rapamycin level, sclera): 751 ng/g | concentration at 3 day (sclera, 2 drops (40 μl per drop) per eye, both eyes, twice a day, Group I (two drops twice a day on both eyes, one time), day 3, n = 2, read-out: Rapamycin level, sclera): 351 ng/g | concentration at 1 day (vitreous, 2 drops (40 μl per drop) on one eye (right eye, OD), Group II (two drops once a day on one eye, one time), OD, day 1, n = 1, read-out: Rapamycin level, vitreous): 2.06 ng/mL | concentration at 2 day (vitreous, 2 drops (40 μl per drop) on one eye (right eye, OD), Group II (two drops once a day on one eye, one time), OD, day 2, n = 1, read-out: Rapamycin level, vitreous): 5.01 ng/mL | concentration at 3 day (vitreous, 2 drops (40 μl per drop) on one eye (right eye, OD), Group II (two drops once a day on one eye, one time), OD, day 3, n = 1, read-out: Rapamycin level, vitreous): 3.96 ng/mL | concentration at 1 day (vitreous, 2 drops (40 μl per drop) on one eye (right eye, OD), Group II (two drops once a day on one eye, one time), OS, day 1, n = 1, read-out: Rapamycin level, vitreous): 1 ng/mL | concentration at 2 day (vitreous, 2 drops (40 μl per drop) on one eye (right eye, OD), Group II (two drops once a day on one eye, one time), OS, day 2, n = 1, read-out: Rapamycin level, vitreous): 2.95 ng/mL | concentration at 3 day (vitreous, 2 drops (40 μl per drop) on one eye (right eye, OD), Group II (two drops once a day on one eye, one time), OS, day 3, n = 1, read-out: Rapamycin level, vitreous): 4 ng/mL | concentration at 8 day (vitreous, 2 drops (40 μl per drop) per eye, both eyes, day 8, n = 2, read-out: Rapamycin level, vitreous): 19.7 ng/mL | concentration at 10 day (vitreous, 2 drops (40 μl per drop) per eye, both eyes, day 10, n = 2, read-out: Rapamycin level, vitreous): 7.9 ng/mL | concentration at 12 day (vitreous, 2 drops (40 μl per drop) per eye, both eyes, day 12, n = 2, read-out: Rapamycin level, vitreous): 1.46 ng/mL | concentration at 14 day (vitreous, 2 drops (40 μl per drop) per eye, both eyes, day 14, n = 2, read-out: Rapamycin level, vitreous): 5.66 ng/mL | concentration at 1 day (vitreous, 2 drops (40 μl per drop) per eye, both eyes, twice a day, Group I (two drops twice a day on both eyes, one time), day 1, n = 2, read-out: Rapamycin level, vitreous): 1.24 ng/mL | concentration at 2 day (vitreous, 2 drops (40 μl per drop) per eye, both eyes, twice a day, Group I (two drops twice a day on both eyes, one time), day 2, n = 2, read-out: Rapamycin level, vitreous): 5.41 ng/mL | concentration at 3 day (vitreous, 2 drops (40 μl per drop) per eye, both eyes, twice a day, Group I (two drops twice a day on both eyes, one time), day 3, n = 2, read-out: Rapamycin level, vitreous): 3.03 ng/mL
SMILES: CO[C@H]1C[C@@H]2CC[C@@H](C)[C@@](O)(O2)C(=O)C(=O)N2CCCC[C@H]2C(=O)O[C@H]([C@H](C)C[C@@H]2CC[C@@H](O)[C@H](OC)C2)CC(=O)[C@H](C)/C=C(\C)[C@@H](O)[C@@H](OC)C(=O)[C@H](C)C[C@H](C)/C=C/C=C/C=C/1C [Rapamycin, rapamycin]
